Test results from US20230059136A1, “THE COMPOUNDS AND COMPOSITIONS FOR TREATING CONDITIONS ASSOCIATED WITH NLRP ACTIVITY” (Novartis AG, priority 2018, published 2023).

Test system: IL-1β production in PMA-differentiated THP-1 cells
Test: IL-1β production in PMA-differentiated THP-1 cells stimulated with gramicidin (hTHP-1 assay containing 2% fetal bovine serum)
Format: cell-based, human
Details: Homo sapiens, THP-1, Table B1; 2% fetal bovine serum; cells printed as numeric bound; read-out: hTHP-1 IC50 (Average IC50 of compounds in hTHP-1 assay)
Outline: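 IL-1β release was read by HTRF on supernatants of 50,000 PMA-primed (20 ng/ml, 16-18 h) THP-1 cells/well in 2% FBS medium. Cells saw compound for 1 h (11-point titration from 100 μM, 0.37% DMSO) before a 2 h gramicidin (5 μM) challenge.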

IC50 [µM]	SMILES
> 30	CC(C)(O)c1ncc(S(N)(=O)=NC(=O)Cc2cc3c(c4c2CCC4)CCC3)s1 (centres unmarked) [Example 242, N-(amino(2-(2-hydroxypropan-2-yl)thiazol-5-yl)(oxo)-λ^6-sulfaneylidene)-2-(1,2,3,6,7,8-hexahydro-as-indacen-4-yl)acetamide]

Same assay, conditions: Homo sapiens, THP-1, Table B1; 2% fetal bovine serum; class symbols; read-out: hTHP-1 IC50 (Average IC50 of compounds in hTHP-1 assay)

SMILES	IC50 [µM]
CC(C)c1ccc(F)c(C(C)C)c1CC(=O)N=S(=O)(NC(=O)Cc1c(C(C)C)ccc(F)c1C(C)C)c1ccc(CN(C)C)nc1 (centres unmarked) [Example 225, N-(6-((dimethylamino)methyl)-N-(2-(3-fluoro-2,6-diisopropylphenyl)acetyl)pyridine-3-sulfonimidoyl)-2-(3-fluoro-2,6-diisopropylphenyl) acetamide]	5 to 30
CC(C)c1cc(C#CC2CCCCC2)cc(C(C)C)c1CC(=O)N=S(N)(=O)c1cc(C(C)(C)O)n(-c2ccccc2)n1 (centres unmarked) [Example 226, N-(amino(5-(2-hydroxypropan-2-yl)-1-phenyl-1H-pyrazol-3-yl)(oxo)-λ^6-sulfaneylidene)-2-(4-(cyclohexylethynyl)-2,6-diisopropylphenyl)acetamide]	1 to 5
CC(C)c1cc(C(=O)CC2CCCCC2)cc(C(C)C)c1CC(=O)N=S(N)(=O)c1cc(C(C)(C)O)n(-c2ccccc2)n1 (centres unmarked) [Example 227]	1 to 5
CC(C)c1cc(CCC2CCCCC2)cc(C(C)C)c1CC(=O)N=S(N)(=O)c1cc(C(C)(C)O)n(-c2ccccc2)n1 (centres unmarked) [Example 228, N-(amino(5-(2-hydroxypropan-2-yl)-1-phenyl-1H-pyrazol-3-yl)(oxo)-λ^6-sulfaneylidene)-2-(4-(2-cyclohexylethyl)-2,6-diisopropylphenyl)acetamide]	5 to 30
CC(C)c1cc(C#CC2CCOCC2)cc(C(C)C)c1CC(=O)N=S(N)(=O)c1cc(C(C)(C)O)n(-c2ccccc2)n1 (centres unmarked) [Example 229, N-(amino(5-(2-hydroxypropan-2-yl)-1-phenyl-1H-pyrazol-3-yl)(oxo)-λ^6-sulfaneylidene)-2-(2,6-diisopropyl-4-((tetrahydro-2H-pyran-4-yl)ethynyl)phenyl)acetamide]	1 to 5
CC(C)c1cc(C(F)F)cc(C(C)C)c1CC(=O)N=S(N)(=O)c1ccc(CN(C)C)nc1 (centres unmarked) [Example 230, N-(amino(6-((dimethylamino)methyl)pyridin-3-yl)(oxo)-λ^6-sulfaneylidene)-2-(4-(difluoromethyl)-2,6-diisopropylphenyl)acetamide]	1 to 5
CC(C)c1cc2c(c(C(C)C)c1CC(=O)N=[S@@](N)(=O)c1cnc(C(C)(C)O)s1)OC(F)(F)O2 [Example 231]	0.2 to 1
CC(C)c1cc2c(cnn2C)c(C(C)C)c1CC(=O)N=[S@@](N)(=O)c1cnc(C(C)(C)O)s1 [Example 232, (R)-N-(amino(2-(2-hydroxypropan-2-yl)thiazol-5-yl)(oxo)-λ^6-sulfaneylidene)-2-(4,6-diisopropyl-1-methyl-1H-indazol-5-yl)acetamide]	5 to 30
Cc1c2c(cc(C3CC3)c1CC(=O)N=[S@@](N)(=O)c1cnc(C(C)(C)O)s1)CCC2 [Example 233, (R)-N-(amino(2-(2-hydroxypropan-2-yl)thiazol-5-yl)(oxo)-λ^6-sulfaneylidene)-2-(6-cyclopropyl-4-methyl-2,3-dihydro-1H-inden-5-yl)acetamide]	5 to 30
COCc1cc(C(C)C)c(CC(=O)N=S(N)(=O)c2ncc(C(C)(C)O)s2)c(C(C)C)n1 (centres unmarked) [Example 236, N-(amino(5-(2-hydroxypropan-2-yl)thiazol-2-yl)(oxo)-λ^6-sulfaneylidene)-2-(2,4-diisopropyl-6-(methoxymethyl)pyridin-3-yl)acetamide]	1 to 5
CC(C)c1cc(C#N)nc(C(C)C)c1CC(=O)NS(=N)(=O)c1sc(C(C)(C)O)nc1CO (centres unmarked) [Example 237, 2-(6-cyano-2,4-diisopropylpyridin-3-yl)-N-(4-(hydroxymethyl)-2-(2-hydroxypropan-2-yl)thiazole-5-sulfonimidoyl)acetamide]	5 to 30
CC(C)c1cc(C#N)c(F)c(C(C)C)c1CC(=O)N=S(N)(=O)c1cnc(C(C)(O)CO)s1 (centres unmarked) [Example 238, N-(amino(2-(1,2-dihydroxypropan-2-yl)thiazol-5-yl)(oxo)-λ^6-sulfaneylidene)-2-(4-cyano-3-fluoro-2,6-diisopropylphenyl) acetamide]	1 to 5

Other lines, results leading:

IC50 [µM]	SMILES
1 to 5	CC(C)c1cc(C#N)c(F)c(C(C)C)c1CC(=O)N=S(N)(=O)c1cc(C(C)(C)O)n(-c2ccccc2)n1 (centres unmarked) [Example 239, N-(amino(5-(2-hydroxypropan-2-yl)-1-phenyl-1H-pyrazol-3-yl)(oxo)-λ^6-sulfaneylidene)-2-(4-cyano-3-fluoro-2,6-diisopropylphenyl)acetamide]
5 to 30	CC(C)c1cc(C#CC2CCCC2)cc(C(C)C)c1CC(=O)N=S(N)(=O)c1cc(C(C)(C)O)c(-c2ccccc2)s1 (centres unmarked) [Example 240, N-(amino(4-(2-hydroxypropan-2-yl)-5-phenylthiophen-2-yl)(oxo)-λ^6-sulfaneylidene)-2-(4-(cyclopentylethynyl)-2,6-diisopropylphenyl)acetamide]
5 to 30	CC(C)c1cc(COC2CCCC2)cc(C(C)C)c1CC(=O)N=S(N)(=O)c1cc(C(C)(C)O)n(-c2ccc(F)cc2)n1 (centres unmarked) [Example 241, N-(amino(1-(4-fluorophenyl)-5-(2-hydroxypropan-2-yl)-1H-pyrazol-3-yl)(oxo)-λ^6-sulfaneylidene)-2-(4-((cyclopentyloxy)methyl)-2,6-diisopropylphenyl)acetamide]
5 to 30	CC(C)c1cc2c(c(C(C)C)c1CC(=O)N=S(N)(=O)c1ccn(C(F)F)n1)COC2 (centres unmarked) [Example 243, N-(amino(1-(difluoromethyl)-1H-pyrazol-3-yl)(oxo)-λ^6-sulfaneylidene)-2-(4,6-diisopropyl-1,3-dihydroisobenzofuran-5-yl) acetamide]
1 to 5	CCc1c2c(cc(C(C)C)c1CC(=O)N=S(N)(=O)c1cc(C(C)(C)O)cs1)COC2 (centres unmarked) [Example 244, N-(amino (4-(2-hydroxypropan-2-yl)thiophen-2-yl)(oxo)-λ^6-sulfaneylidene)-2-(4-ethyl-6-isopropyl-1,3-dihydroisobenzofuran-5-yl) acetamide]
1 to 5	CCc1cc2c(c(C(C)C)c1CC(=O)N=S(N)(=O)c1cc(C(C)(C)O)cs1)COC2 (centres unmarked) [Example 245, N-(amino (4-(2-hydroxypropan-2-yl)thiophen-2-yl)(oxo)-λ^6-sulfaneylidene)-2-(6-ethyl-4-isopropyl-1,3-dihydroisobenzofuran-5-yl) acetamide]
0.04 to 0.2	CC(C)c1cc2c(c(C(C)C)c1CC(=O)N=S(N)(=O)c1sc(C(C)(C)O)cc1F)COC2 (centres unmarked) [Example 246, N-(amino(3-fluoro-5-(2-hydroxypropan-2-yl)thiophen-2-yl)(oxo)-λ^6-sulfaneylidene)-2-(4,6-diisopropyl-1,3-dihydroisobenzofuran-5-yl) acetamide]
1 to 5	CC(C)c1cc(C#N)c(F)c(C(C)C)c1CC(=O)N=S(N)(=O)c1cc(C(C)(O)CO)n(-c2ccccc2)n1 (centres unmarked) [Example 247, N-(amino(5-(1,2-dihydroxypropan-2-yl)-1-phenyl-1H-pyrazol-3-yl)(oxo)-λ^6-sulfaneylidene)-2-(4-cyano-3-fluoro-2,6-diisopropylphenyl)acetamide]
1 to 5	CC(C)c1cc(C(F)F)nc(C(C)C)c1CC(=O)N=S(N)(=O)c1sc(CN(C)C)cc1F (centres unmarked) [Example 248, N-(amino(5-((dimethylamino)methyl)-3-fluorothiophen-2-yl)(oxo)-λ^6-sulfaneylidene)-2-(6-(difluoromethyl)-2,4-diisopropylpyridin-3-yl)acetamide]
1 to 5	CC(C)c1cc2c(c(C(C)C)c1CC(=O)N=S(N)(=O)c1sc(CN(C)C)cc1F)COC2 (centres unmarked) [Example 249, N-(amino(5-((dimethylamino)methyl)-3-fluorothiophen-2-yl)(oxo)-λ^6-sulfaneylidene)-2-(4,6-diisopropyl-1,3-dihydroisobenzofuran-5-yl)acetamide]
5 to 30	CC(C)c1cc(C(F)F)cc(C(C)C)c1CC(=O)N=S(N)(=O)c1ncc(CN(C)C)cc1F (centres unmarked) [Example 250]
0.2 to 1	CC(C)c1cc(COC2CCCC2)cc(C(C)C)c1CC(=O)N=S(N)(=O)c1cnc(C(C)(O)CO)s1 (centres unmarked) [Example 251, N-(amino(2-(1,2-dihydroxypropan-2-yl)thiazol-5-yl)(oxo)-λ^6-sulfaneylidene)-2-(4-((cyclopentyloxy)methyl)-2,6-diisopropylphenyl)acetamide]
1 to 5	CC(C)c1cc2c(c(C(C)C)c1CC(=O)N=S(N)(=O)c1cnc(C(C)(O)CO)s1)COC2 (centres unmarked) [Example 252, N-(amino(2-(1,2-dihydroxypropan-2-yl)thiazol-5-yl) (oxo)-λ^6-sulfaneylidene)-2-(4,6-diisopropyl-1,3-dihydroisobenzofuran-5-yl)acetamide]
1 to 5	CC(C)c1cc(-c2ccc3c(c2)CCOC3)cc(C(C)C)c1CC(=O)N=S(N)(=O)c1cnc(C(C)(O)CO)s1 (centres unmarked) [Example 253, N-(amino(2-(1,2-dihydroxypropan-2-yl)thiazol-5-yl) (oxo)-λ^6-sulfaneylidene)-2-(4-(isochroman-6-yl)-2,6-diisopropylphenyl)acetamide]
5 to 30	CNCc1ccc(S(N)(=O)=NC(=O)Cc2c(C(C)C)cc(C(F)F)nc2C(C)C)cc1 (centres unmarked) [Example 254, N-(amino(4-((methylamino)methyl)phenyl)(oxo)-λ^6-sulfaneylidene)-2-(6-(difluoromethyl)-2,4-diisopropylpyridin-3-yl)acetamide]
5 to 30	CNCc1ccc(S(N)(=O)=NC(=O)Cc2c(C(C)C)cc(C(F)F)cc2C(C)C)cc1 (centres unmarked) [Example 255, N-(amino(4-((methylamino)methyl)phenyl)(oxo)-λ^6-sulfaneylidene)-2-(4-(difluoromethyl)-2,6-diisopropylphenyl)acetamide]
